# Legend:
# Eca-109/VCR [1] = assay: Antiproliferative activity against human Eca-109/VCR cells assessed as cell viability at 5 uM incubated for 48 hrs by CCK-8 assay (reference value: 100 +/- 1.8%); assay type: functional; details: read-out: Activity
# Eca-109/VCR [2] = assay: Reversal of vincristine resistance in human Eca-109/VCR cells assessed as reversal fold by measuring ratio of vincristine IC50 to vincristine IC50 in presence of test compound at 5 uM incubated for 48 hrs by CCK8 assay; assay type: functional
# Eca-109/VCR [3] = assay: Reversal of vincristine resistance in human Eca-109/VCR cells assessed as reduction in cell viability incubated for 48 hrs by CCK-8 assay; assay type: functional, cell-based
# ECa-109 cell line = assay: Antiproliferative activity against human Eca-109 cells assessed as reduction in cell viability incubated for 48 hrs by CCK-8 assay; assay type: functional, cell-based; details: ECa-109, 48 h
compound,measurement,setting,value
CCOC(=O)C1C2c3ccc([N+](=O)[O-])cc3C(=O)C2C(c2ccccc2)C12C(=O)N(C)c1ccc(OC(F)(F)F)cc12 (stereo unspecified),viability at 5 µM,Eca-109/VCR [1],91.9%
same,Ratio IC50,Eca-109/VCR [2],1.7
CCOC(=O)C1C2c3ccc([N+](=O)[O-])cc3C(=O)C2C(c2cccc(C)c2)C12C(=O)N(C)c1ccccc12 (stereo unspecified),viability at 5 µM,Eca-109/VCR [1],102%
same,Ratio IC50,Eca-109/VCR [2],56.7
CCOC(=O)C1C2c3ccc([N+](=O)[O-])cc3C(=O)C2C(c2ccc(Br)cc2)C12C(=O)N(C)c1ccccc12 (stereo unspecified),viability at 5 µM,Eca-109/VCR [1],85.1%
same,Ratio IC50,Eca-109/VCR [2],11.7
CCOC(=O)C1C2c3ccc(-n4cc(-c5ccccc5)nn4)cc3C(=O)C2C(c2ccccc2)C12C(=O)N(C)c1ccccc12 (stereo unspecified),viability at 5 µM,Eca-109/VCR [1],98.9%
same,Ratio IC50,Eca-109/VCR [2],56.1
O=C1c2cc([N+](=O)[O-])ccc2C2C1C(c1ccccc1)C1(Oc3ccccc3C1=O)C2c1ccccc1 (stereo unspecified),viability at 5 µM,Eca-109/VCR [1],99.1%
same,Ratio IC50,Eca-109/VCR [2],15.2
CCOC(=O)C1C2c3ccc([N+](=O)[O-])cc3C(=O)C2C(c2cccc(OC)c2)C12C(=O)N(C)c1ccccc12 (stereo unspecified),viability at 5 µM,Eca-109/VCR [1],99.7%
same,Ratio IC50,Eca-109/VCR [2],3
CCOC(=O)C1C2c3c(cccc3[N+](=O)[O-])C(=O)C2C(c2ccccc2)C12C(=O)N(C)c1ccccc12 (stereo unspecified),viability at 5 µM,Eca-109/VCR [1],102%
same,Ratio IC50,Eca-109/VCR [2],10.5
COc1cccc2c1C(=O)c1c(O)c3c(c(O)c1C2=O)C[C@@](O)(C(=O)CO)C[C@@H]3O[C@H]1C[C@H](N)[C@H](O)[C@H](C)O1 [DOXORUBICIN],IC50,Eca-109/VCR [3],20.2 µM
same,IC50,ECa-109 cell line,2.07 µM
CCOC(=O)C1C2c3ccc([N+](=O)[O-])cc3C(=O)C2C(c2ccc(C)cc2)C12C(=O)N(C)c1ccccc12 (stereo unspecified),viability at 5 µM,Eca-109/VCR [1],102%
same,Ratio IC50,Eca-109/VCR [2],24.7
CCOC(=O)C1C2c3ccc(Br)cc3C(=O)C2C(c2ccccc2)C12C(=O)N(C)c1ccccc12 (stereo unspecified),viability at 5 µM,Eca-109/VCR [1],100%
same,Ratio IC50,Eca-109/VCR [2],16.7
CN1C(=O)C2(c3cc(Cl)ccc31)C(C(=O)OC(C)(C)C)C1c3ccc([N+](=O)[O-])cc3C(=O)C1C2c1ccccc1 (stereo unspecified),viability at 5 µM,Eca-109/VCR [1],98.2%
same,Ratio IC50,Eca-109/VCR [2],388.1
CCOC(=O)C1C2c3ccc([N+](=O)[O-])cc3C(=O)C2C(c2ccco2)C12C(=O)N(C)c1ccccc12 (stereo unspecified),viability at 5 µM,Eca-109/VCR [1],102%
same,Ratio IC50,Eca-109/VCR [2],12.7
CCOC(=O)C1C2c3ccc([N+](=O)[O-])cc3C(=O)C2C(c2ccc(C(F)(F)F)cc2)C12C(=O)N(C)c1ccccc12 (stereo unspecified),viability at 5 µM,Eca-109/VCR [1],97.9%
same,Ratio IC50,Eca-109/VCR [2],39.2
CN1C(=O)C2(c3cc(Cl)ccc31)C(C(=O)NC(C)(C)C)C1c3ccc([N+](=O)[O-])cc3C(=O)C1C2c1ccccc1 (stereo unspecified),viability at 5 µM,Eca-109/VCR [1],97.5%
same,Ratio IC50,Eca-109/VCR [2],659.1
CN1C(=O)C2(c3cccc(Br)c31)C(C(=O)OC(C)(C)C)C1c3ccc([N+](=O)[O-])cc3C(=O)C1C2c1ccccc1 (stereo unspecified),viability at 5 µM,Eca-109/VCR [1],99.8%
same,Ratio IC50,Eca-109/VCR [2],38.6
CCOC(=O)C1C2c3ccc([N+](=O)[O-])cc3C(=O)C2C(C2CC2)C12C(=O)N(C)c1ccccc12 (stereo unspecified),viability at 5 µM,Eca-109/VCR [1],96.2%
same,Ratio IC50,Eca-109/VCR [2],2.5
CC(=O)O[C@@]12CO[C@@H]1C[C@H](O)[C@@]1(C)C(=O)[C@H](O)C3=C(C)[C@@H](OC(=O)[C@H](O)[C@@H](NC(=O)OC(C)(C)C)c4ccccc4)C[C@@](O)([C@@H](OC(=O)c4ccccc4)[C@H]21)C3(C)C [DOCETAXEL ANHYDROUS],IC50,Eca-109/VCR [3],9.73 µM
same,IC50,ECa-109 cell line,0.773 µM
O=C1c2cc([N+](=O)[O-])ccc2C2C1C(c1ccccc1)C(C(=O)c1ccccc1)C2C(F)(F)F (stereo unspecified),viability at 5 µM,Eca-109/VCR [1],56.3%
O=C1c2c(O)ccc(O)c2C(=O)c2c(NCCNCCO)ccc(NCCNCCO)c21 [MITOXANTRONE],IC50,Eca-109/VCR [3],5.87 µM
same,IC50,ECa-109 cell line,0.646 µM
CCOC(=O)C1C2c3ccc([N+](=O)[O-])cc3C(=O)C2C(c2ccccc2)C12C(=O)N(C)c1cc(OC)ccc12 (stereo unspecified),viability at 5 µM,Eca-109/VCR [1],90.5%
same,Ratio IC50,Eca-109/VCR [2],53.2
O=C1c2cc([N+](=O)[O-])ccc2C2C1C(c1ccccc1)C1(C(=O)c3ccccc3C1=O)C2c1ccccc1 (stereo unspecified),viability at 5 µM,Eca-109/VCR [1],96.6%
same,Ratio IC50,Eca-109/VCR [2],57.1
COc1cc2c(c(OC)c1OC)-c1ccc(OC)c(=O)cc1[C@@H](NC(C)=O)CC2 [COLCHICINE],IC50,Eca-109/VCR [3],3.63 µM
same,IC50,ECa-109 cell line,0.012 µM
CCOC(=O)C1C2c3ccc([N+](=O)[O-])cc3C(=O)C2C(c2ccccc2Br)C12C(=O)N(C)c1ccccc12 (stereo unspecified),viability at 5 µM,Eca-109/VCR [1],96.4%
same,Ratio IC50,Eca-109/VCR [2],1.8
COC(=O)C1C(C(=O)c2ccccc2)C(c2ccccc2)C2C(=O)c3cc([N+](=O)[O-])ccc3C12 (stereo unspecified),viability at 5 µM,Eca-109/VCR [1],75.2%
same,Ratio IC50,Eca-109/VCR [2],12.3
CCOC(=O)C1C2c3ccc([N+](=O)[O-])cc3C(=O)C2C(c2ccccc2)C12C(=O)N(C)c1c(C)cccc12 (stereo unspecified),viability at 5 µM,Eca-109/VCR [1],102%
same,Ratio IC50,Eca-109/VCR [2],38.9
CCOC(=O)C1C2c3ccc([N+](=O)[O-])cc3C(=O)C2C(c2ccccc2)C12C(=O)N(C)c1ccc(OC)cc12 (stereo unspecified),viability at 5 µM,Eca-109/VCR [1],99.4%
same,Ratio IC50,Eca-109/VCR [2],16.4
CN1C(=O)C2(c3ccccc31)C(C(=O)OC(C)(C)C)C1c3ccc([N+](=O)[O-])cc3C(=O)C1C2c1ccccc1 (stereo unspecified),viability at 5 µM,Eca-109/VCR [1],103%
same,Ratio IC50,Eca-109/VCR [2],56.1
CCOC(=O)C1C2c3ccc([N+](=O)[O-])cc3C(=O)C2C(c2ccccc2)C12C(=O)N(C)c1c(C)cc(C)cc12 (stereo unspecified),viability at 5 µM,Eca-109/VCR [1],89.7%
same,Ratio IC50,Eca-109/VCR [2],2.3
CN1C(=O)C2(c3ncccc31)C(C(=O)OC(C)(C)C)C1c3ccc([N+](=O)[O-])cc3C(=O)C1C2c1ccccc1 (stereo unspecified),viability at 5 µM,Eca-109/VCR [1],104%
same,Ratio IC50,Eca-109/VCR [2],33.6
CN1C(=O)C2(c3cc(F)ccc31)C(C(=O)OC(C)(C)C)C1c3ccc([N+](=O)[O-])cc3C(=O)C1C2c1ccccc1 (stereo unspecified),viability at 5 µM,Eca-109/VCR [1],101%
same,Ratio IC50,Eca-109/VCR [2],6.6
CS(=O)(=O)CCNCc1ccc(-c2ccc3ncnc(Nc4ccc(OCc5cccc(F)c5)c(Cl)c4)c3c2)o1 [LAPATINIB],IC50,Eca-109/VCR [3],6.69 µM
same,IC50,ECa-109 cell line,9.16 µM
CCOC(=O)C1C2c3ccc([N+](=O)[O-])cc3C(=O)C2C(c2ccccc2)C12C(=O)N(C)c1ccccc12 (stereo unspecified),viability at 5 µM,Eca-109/VCR [1],102%
same,Ratio IC50,Eca-109/VCR [2],86.8
CCOC(=O)C1C2c3ccc([N+](=O)[O-])cc3C(=O)C2C(c2ccccc2C)C12C(=O)N(C)c1ccccc12 (stereo unspecified),viability at 5 µM,Eca-109/VCR [1],92.2%
same,Ratio IC50,Eca-109/VCR [2],14.7
O=C1c2cc([N+](=O)[O-])ccc2C2C1C(c1ccccc1)C1(Cc3ccccc3C1=O)C2c1ccccc1 (stereo unspecified),viability at 5 µM,Eca-109/VCR [1],85.2%
same,Ratio IC50,Eca-109/VCR [2],34.8
O=C1c2cc([N+](=O)[O-])ccc2C2C1C(c1ccccc1)C([N+](=O)[O-])C2c1ccccc1 (stereo unspecified),viability at 5 µM,Eca-109/VCR [1],78.2%
same,Ratio IC50,Eca-109/VCR [2],49.9
CN1C(=O)C2(c3cc(Br)ccc31)C(C(=O)OC(C)(C)C)C1c3ccc([N+](=O)[O-])cc3C(=O)C1C2c1ccccc1 (stereo unspecified),viability at 5 µM,Eca-109/VCR [1],105%
same,Ratio IC50,Eca-109/VCR [2],2.9
